Test results published in patent US20070280915A1, “Combination Therapies Employing A Composition Comprising A Hmg Coa Reductase Inhibitor And A Vitamin B6 Related Compound” (priority 2003, published 2007).

Legend:
CYP2C9 = target: T1, CYP2C9 (Homo sapiens, UniProt P11712); assay: CYP2C9 inhibition assay (substrate MFC); type: in vitro ADME; settings: 0.0169 to […] tested, na = concentration-dependent inhibition not observed
T1 construct: purchased Gentest Corp; host or cells: insect cells (baculovirus)
T1 sequence (P11712 whole entry): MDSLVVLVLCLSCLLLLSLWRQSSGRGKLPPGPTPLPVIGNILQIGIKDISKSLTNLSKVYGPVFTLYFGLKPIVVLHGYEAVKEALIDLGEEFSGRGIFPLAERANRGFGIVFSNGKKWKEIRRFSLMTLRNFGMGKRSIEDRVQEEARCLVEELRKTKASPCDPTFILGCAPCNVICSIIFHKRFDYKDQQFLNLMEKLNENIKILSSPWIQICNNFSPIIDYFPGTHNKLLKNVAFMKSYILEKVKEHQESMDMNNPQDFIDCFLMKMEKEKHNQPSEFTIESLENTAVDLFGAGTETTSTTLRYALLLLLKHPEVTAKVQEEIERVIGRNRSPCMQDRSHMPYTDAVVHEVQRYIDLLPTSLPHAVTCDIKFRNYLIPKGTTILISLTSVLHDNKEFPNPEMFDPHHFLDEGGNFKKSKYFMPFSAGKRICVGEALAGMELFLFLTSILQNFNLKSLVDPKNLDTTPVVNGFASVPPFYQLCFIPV
Method: […]. […] All determinations were performed in duplicate.

[1] = system: patients who underwent percutaneous coronary intervention (PCI); assay: Randomized double-blinded study of P5P vs placebo in high-risk percutaneous coronary intervention (PCI); type: in vivo
Excerpt: Inclusion criteria required prior determination for non-urgent PCI of a single-vessel lesion(s) and identification of ≧1 of the following clinical characteristics determining high risk for procedural-related ischemic complications (Califf R M, Abdelmeguid A E, Kuntz R E, Popma J J, Davidson C J, Cohen E A, Kleiman N S, Mahaffey K W, Topol E J, Pepine C J, et al. Myonecrosis after revascularization procedures. J Am Coll Cardiol 1998; 31:241-251; The ESPRIT Investigators. Novel dosing regimen of eptifibatide in planned coronary stent implantation: a randomised, placebo-controlled trial. Lancet 2000; 356:2037-2044): presence of an acute coronary syndrome (chest pain within 48 hours of PCI), recent AMI (≦7 days), diminished epicardial blood flow, angiographic thrombus, ejection fraction ≦30%, or vein graft lesion. In addition to any general contraindication to the PCI procedure or standard concomitant therapies, major exclusion criteria were creatine kinase (CK-MB) elevation above the upper limit of normal immediately before PCI, electrocardiographic evidence of atrial fibrillation or left bundle branch block, or evidence of any clinically significant abnormal laboratory finding (transaminases, bilirubin, or alkaline phosphatase >1.5 times the upper limit of normal or serum creatinine >1.8 mg/dl). Patients with elevated troponin measurements were permitted in the study provided that the peak troponin value was reported >24 hours before scheduled PCI, with documentation of a decreasing value before revascularization. […] Compliance and reasons for discontinued treatments were recorded for all patients.
Study end points and definitions—The primary objective of the study was to evaluate the feasibility of treatment with P5P as a cardioprotective agent in high-risk elective PCI. The primary end point of infarct size was evaluated by the trapezoidal rule (Press W H, Teukolsky S A, Vetterling W T, Flannery B P. Numerical Recipes. Cambridge, UK: Cambridge University Press, 1994:127-133.) using serial CK-MB enzyme measures performed at baseline and every 6 hours for 24 hours beginning immediately before initiation of PCI. The occurrence of myocardial ischemia within 24 hours after PCI was assessed as a secondary end point using continuous 12-lead electrocardiographic monitoring (Northeast Monitoring, Boston, Mass.). Evidence of periprocedural ischemia was defined as ST-segment depression of >100 μV within a 60-minute period of PCI, lasting ≧1 minute and separated from other episodes by 1 minute. Area under the curve ST-segment deviation was measured from the onset of the first to the last contrast injection. All cardiac markers and ST-segment monitoring data were analyzed by core laboratories blinded to treatment assignment (University of Maryland School of Medicine, Baltimore, Md.; Duke Ischemia Monitoring Laboratory, Durham, N.C.). Additional prespecified secondary end points included the 30-day composite and individual event rates of death; nonfatal infarction; new or worsening heart failure, or recurrent ischemia in addition to net clinical safety, which was defined as the absence of major adverse ischemic events; Thrombolysis In Myocardial Infarction (TIMI) major bleeding; and liver function or coagulation test abnormalities. Acute myocardial infarction (AMI) was defined as CK-MB elevation ≧3 times the upper limit of normal (upper limit of normal 7 ng/ml) and/or troponin T levels […] the upper limit of normal (upper limit of normal 0.1 ng/ml). If previous troponin (or CKMB) values were above the upper limit of normal, values were required to be 50% of the baseline measurement in addition to ≧2 times (≧3 times for CK-MB) the upper limit of normal to meet the definition of AMI. Routine chemistries, complete blood count, and coagulation assays were performed at baseline, 7 days, and 30 days after randomization. […]

CYP2C19 = CYP2C19 (Homo sapiens, UniProt P33261); assay: CYP2C19 inhibition assay (substrate CEC); settings: read-out: Pyridoxal 5′-phosphate IC50, 0.0169 to […] tested, listed as pyridoxal 5′-phosphate
Chain of CYP2C19 (P33261 whole entry): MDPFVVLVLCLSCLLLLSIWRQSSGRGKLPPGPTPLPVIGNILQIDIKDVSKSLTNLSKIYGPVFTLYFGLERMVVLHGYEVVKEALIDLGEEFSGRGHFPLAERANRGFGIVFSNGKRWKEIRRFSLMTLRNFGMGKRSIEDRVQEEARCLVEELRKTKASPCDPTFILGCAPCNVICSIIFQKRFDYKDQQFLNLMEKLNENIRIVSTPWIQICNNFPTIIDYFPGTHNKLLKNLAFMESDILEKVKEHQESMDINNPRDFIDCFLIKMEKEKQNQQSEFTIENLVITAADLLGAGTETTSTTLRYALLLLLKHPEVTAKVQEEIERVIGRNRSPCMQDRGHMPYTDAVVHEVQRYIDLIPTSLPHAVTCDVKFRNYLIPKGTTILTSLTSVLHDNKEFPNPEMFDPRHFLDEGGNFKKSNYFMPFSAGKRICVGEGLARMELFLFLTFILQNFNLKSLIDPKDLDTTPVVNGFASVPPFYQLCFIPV
Excerpt: The CYP inhibition assays used microsomes (Supersomes®, Gentest Corp., Woburn, Mass.) prepared from insect cells, each expressing an individual CYP subtype (CYP1A2, CYP2A6, CYP2B6, CYP2C8, CYP2C9, CYP2C19, CYP2D6, CYP2E1 or CYP3A4) expressed from the corresponding human CYP cDNA using a baculovirus expression vector. The microsomes also incorporated supplemental cDNA-expressed human reductase and/or cytochrome b5, as these enzymes stimulate the activity of the CYPs, allowing for a reduction in the amount of enzyme required per reaction (Gentest Corp.). The assays monitored, via fluorescence detection, the formation of a fluorescent metabolite following incubation of the microsomes with a specific CYP substrate. […]
Eight inhibitor and test compound concentrations were tested using 3-fold serial dilutions. […] The amount of metabolic product formed was quantified by fluorescence detection in a fluorescence plate reader utilizing excitation and emission filters that had been optimized for the detection of each metabolite.
Data Analysis—The mean of the duplicate fluorescent signals in the presence and absence (vehicle control) of each compound was calculated and corrected for the background noise. […]

Question: How did the “Pyridoxal 5′-phosphate IC50” value (CYP2C9) turn out when Cc1ncc(COP(=O)(O)O)c(C=O)c1O [P5P, pyridoxal-5-phosphate] was run?
Answer: The value was “did not inhibit”.

Question: What about the “safety issues related to treatment” value ([1]; 60 patients in safety analyses) of the same molecule?
Answer: Its value is “No safety issues”.

Question: What about the “Area under the curve ST deviation” value ([1]; 24 h continuous electrocardiographic ST-monitoring, median (interquartile range)) of the same molecule?
Answer: The value was 1349 (951-2,263), μV-min.

Question: And the “Any post-PCI ischemia” value ([1]; 24 h continuous electrocardiographic ST-monitoring, percent of patients)?
Answer: Its value is 14.7-34%.

Question: And the deaths ([1]; 30 days)?
Answer: Its deaths is “no deaths”.

Question: What about the “occurrence of 30-day nonfatal AMI” value ([1]; 30 days, vs 10.0% with placebo, p=1.0) of the same molecule?
Answer: The value was 12.8%.

Question: What about the “30-day composite adverse event rate (death, nonfatal AMI, new and/or worsening heart failure, or recurrent ischemia)” value ([1]; 30 days, vs 15.0% with placebo, p=1.0) of the same molecule?
Answer: The value was 17.9%.

Question: What about the “abnormalities of routine chemistries or coagulation studies” value ([1]; at 7 and 30 days, vs placebo) of the same molecule?
Answer: The value was “no apparent differences”.

Question: What about the “CK-MB max (mean)” value ([1]; mean per therapy subgroup, with or without adjunctive statin) of the same molecule?
Answer: Its value is 0.73 ng/mL.

Question: And the “Time to peak CK-MB” value ([1]; median (interquartile range))?
Answer: Its value is 11.0 (0-18.0), 36 h.

Question: And the “Area under the curve CK-MB” value ([1]; median (interquartile range), P5P 10 mg/kg oral before PCI, then 5 mg/kg twice daily)?
Answer: Its value is 1.1 (0.5-2.4), 39 ng/ml.

Question: What about the “Change in troponin T” value ([1]; median (interquartile range), baseline to within 24 hours after PCI) of the same molecule?
Answer: Its value is 0 (0 = 0.7), 36 ng/ml.

Question: What about the Periprocedural cardiac markers ([1]; median (interquartile range), enteric-coated P5P 10 mg/kg oral before PCI, then 5 mg/kg twice daily 14 days) of the same molecule?
Answer: The Periprocedural cardiac markers was 18.6 (10.2-34.5),.

Question: What about the “maximum periprocedural CK-MB level” value ([1]; patients receiving P5P vs placebo) of the same molecule?
Answer: The value was “significantly lower”.

Question: And the “need for blood product transfusion” value ([1]; vs 10.00% placebo, p=0.26)?
Answer: The value was 2.5%.

Question: What about the “occurrence of major bleeding” value ([1]; vs 10.5% placebo, p=0.27) of the same molecule?
Answer: Its value is 2.8%.

Question: And the “patients who discontinued drug therapy before completion of the prescribed 2 weeks” value ([1]; vs 25.0% placebo, p=0.77)?
Answer: The value was 30.8%.

Question: What about the “median periprocedural CK-MB area under the curve (periprocedural infarct size, primary end point)” value ([1]; vs 32.9 with placebo, p=0.038) of the same molecule?
Answer: Its value is 18.6 ng/mL.

Question: What about the IC50 (CYP2C19) of the same molecule?
Answer: Its IC50 is roughly 33 µM.
